Test results published in paper PMC5392334, “Discovery and characterization of a novel irreversible EGFR mutants selective and potent kinase inhibitor CHMFL-EGFR-26 with a distinct binding mode” (Oncotarget, 2017).

Assays:
CSF1R-autoinhibited = biological target: T1, CSF1R-autoinhibited (Homo sapiens, UniProt P07333); assay: KinomeScan; type: binding; settings: read-out: % control
T1 construct: purchased DiscoveRx KINOMEscan

FRK = biological target: T2, FRK (Homo sapiens, UniProt P42685); assay: KinomeScan; type: binding; settings: read-out: % control
T2 construct: purchased DiscoveRx KINOMEscan

FGR = biological target: T3, FGR (Homo sapiens, UniProt P09769); assay: KinomeScan; type: binding; settings: read-out: % control
T3 construct: purchased DiscoveRx KINOMEscan

CAMK2B = biological target: T4, CAMK2B (Homo sapiens, UniProt Q13554); assay: KinomeScan; type: binding; settings: read-out: % control
T4 construct: purchased DiscoveRx KINOMEscan
T4 sequence (Q13554 whole entry): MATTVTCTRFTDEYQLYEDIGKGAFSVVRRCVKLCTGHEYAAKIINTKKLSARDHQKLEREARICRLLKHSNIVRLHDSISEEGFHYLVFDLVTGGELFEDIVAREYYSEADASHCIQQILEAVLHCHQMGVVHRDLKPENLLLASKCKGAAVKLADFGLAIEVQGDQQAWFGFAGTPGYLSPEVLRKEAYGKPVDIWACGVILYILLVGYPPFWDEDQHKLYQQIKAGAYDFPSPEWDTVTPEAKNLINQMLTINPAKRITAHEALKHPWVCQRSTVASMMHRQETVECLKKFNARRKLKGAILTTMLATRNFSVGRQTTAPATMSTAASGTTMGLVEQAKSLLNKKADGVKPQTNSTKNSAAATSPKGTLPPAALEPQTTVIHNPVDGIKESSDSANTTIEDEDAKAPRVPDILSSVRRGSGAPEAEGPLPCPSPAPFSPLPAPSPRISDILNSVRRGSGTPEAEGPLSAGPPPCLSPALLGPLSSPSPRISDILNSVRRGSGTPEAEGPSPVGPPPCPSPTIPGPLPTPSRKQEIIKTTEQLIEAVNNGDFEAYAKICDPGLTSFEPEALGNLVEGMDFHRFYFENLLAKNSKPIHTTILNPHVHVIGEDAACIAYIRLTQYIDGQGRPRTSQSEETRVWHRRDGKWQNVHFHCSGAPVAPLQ

SGK = biological target: T5, SGK (Homo sapiens, UniProt O00141); assay: KinomeScan; type: binding; settings: read-out: % control
T5 construct: purchased DiscoveRx KINOMEscan
T5 sequence (O00141 whole entry): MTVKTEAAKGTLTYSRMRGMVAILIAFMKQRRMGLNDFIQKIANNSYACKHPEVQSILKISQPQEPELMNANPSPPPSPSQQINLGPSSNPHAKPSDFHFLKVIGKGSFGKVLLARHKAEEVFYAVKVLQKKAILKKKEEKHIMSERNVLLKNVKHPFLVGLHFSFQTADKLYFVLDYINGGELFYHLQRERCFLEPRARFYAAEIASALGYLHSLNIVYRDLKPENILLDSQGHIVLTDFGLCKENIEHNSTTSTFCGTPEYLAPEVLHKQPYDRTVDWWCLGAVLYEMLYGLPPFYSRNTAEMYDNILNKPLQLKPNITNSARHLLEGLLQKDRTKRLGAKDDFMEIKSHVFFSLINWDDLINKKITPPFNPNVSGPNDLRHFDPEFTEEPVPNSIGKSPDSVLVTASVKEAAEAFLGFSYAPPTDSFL

MEK5 = biological target: T6, MEK5 (Homo sapiens, UniProt Q13163); assay: KinomeScan; type: binding; settings: read-out: % control
T6 construct: purchased DiscoveRx KINOMEscan

ERK5 = biological target: T7, ERK5 (Homo sapiens, UniProt Q13164); assay: KinomeScan; type: binding; settings: read-out: % control
T7 construct: purchased DiscoveRx KINOMEscan

CHL = assay: Anti-proliferation, normal cells (CellTiter-Glo); settings: Cricetulus griseus, 72 h
Experimental: Cells were grown in 96-well culture plates (2500-3000/well). For adherent cell lines, compounds of various concentrations were added into the plates after cells were cultured for 12 hours. Cell proliferation was determined after treatment with compounds for 72 hours. Cell viability was measured using the CellTiter–Glo assay (Promega, USA) according to the manufacturer's instructions, and luminescence was measured in a multi-label reader (Envision, PerkinElmer, USA). Data were normalized to control groups (DMSO) and represented by the mean of three independent measurements with standard error <20%. GI50 values were calculated using Prism 5.0 (GraphPad Software, San Diego, CA).

IRAK3 = biological target: T8, IRAK3 (Homo sapiens, UniProt Q9Y616); assay: KinomeScan; type: binding; settings: read-out: % control
T8 construct: purchased DiscoveRx KINOMEscan

MYO3B = biological target: T9, MYO3B (Homo sapiens, UniProt Q8WXR4); assay: KinomeScan; type: binding; settings: read-out: % control
T9 construct: purchased DiscoveRx KINOMEscan

EGFR(L861Q) = biological target: T10, EGFR(L861Q) (Homo sapiens, UniProt P00533, L861Q); assay: KinomeScan; type: binding; settings: read-out: % control
T10 construct: purchased DiscoveRx KINOMEscan

TGFBR1 = biological target: T11, TGFBR1 (Homo sapiens, UniProt P36897); assay: KinomeScan; type: binding; settings: read-out: % control
T11 construct: purchased DiscoveRx KINOMEscan

EPHA6 = biological target: T12, EPHA6 (Homo sapiens, UniProt Q9UF33); assay: KinomeScan; type: binding; settings: read-out: % control
T12 construct: purchased DiscoveRx KINOMEscan

TAOK3 = biological target: T13, TAOK3 (Homo sapiens, UniProt Q9H2K8); assay: KinomeScan; type: binding; settings: read-out: % control
T13 construct: purchased DiscoveRx KINOMEscan

SgK110 = biological target: T14, SgK110 (Homo sapiens, UniProt P0C264); assay: KinomeScan; type: binding; settings: read-out: % control
T14 construct: purchased DiscoveRx KINOMEscan

BMPR1A = biological target: T15, BMPR1A (Homo sapiens, UniProt P36894); assay: KinomeScan; type: binding; settings: read-out: % control
T15 construct: purchased DiscoveRx KINOMEscan

468 kinases/mutants = assay: KinomeScan selectivity profile (panel); type: binding; settings: 1μM
From the text: In order to better understand CHMFL-EGFR-26's selectivity, we then tested it in DiscoveRx's KinomeScan™ assay. […] Given the fact that KinomeScan™ is a binding assay and sometimes cannot truly reflect the compound inhibitory activity, we then used Invitrogen SelectScreen® assay to test these potential off-targets (Supplementary Table 2). […] This was not surprising because EGFR, JAK3, HER2, HER4 and TEC family kinases (BTK, BLK and BMX) all share a similar cysteine residue at the identical position analogous to Cys 797 in EGFR in the hinge binding area.

RIOK1 = biological target: T16, RIOK1 (Homo sapiens, UniProt Q9BRS2); assay: KinomeScan; type: binding; settings: read-out: % control
T16 construct: purchased DiscoveRx KINOMEscan

[1] = test system: BaF3-FL-EGFR-del19-T790M-C797S; assay: Anti-proliferation, BaF3 isogenic cell lines (CellTiter-Glo); type: cell-based; settings: Mus musculus, 72 hours, triplet testing
RET(V804M) = biological target: T17, RET(V804M) (Homo sapiens, UniProt P07949, V804M); assay: KinomeScan; type: binding; settings: read-out: % control
T17 construct: purchased DiscoveRx KINOMEscan

PRKCH = biological target: T18, PRKCH (Homo sapiens, UniProt P24723); assay: KinomeScan; type: binding; settings: read-out: % control
T18 construct: purchased DiscoveRx KINOMEscan

HIPK4 = biological target: T19, HIPK4 (Homo sapiens, UniProt Q8NE63); assay: KinomeScan; type: binding; settings: read-out: % control
T19 construct: purchased DiscoveRx KINOMEscan

PIK3CA(Q546K) = biological target: T20, PIK3CA(Q546K) (Homo sapiens, UniProt P42336, Q546K); assay: KinomeScan; type: binding; settings: read-out: % control
T20 construct: purchased DiscoveRx KINOMEscan

PIP5K1A = biological target: T21, PIP5K1A (Homo sapiens, UniProt Q99755); assay: KinomeScan; type: binding; settings: read-out: % control
T21 construct: purchased DiscoveRx KINOMEscan
T21 sequence (Q99755 whole entry): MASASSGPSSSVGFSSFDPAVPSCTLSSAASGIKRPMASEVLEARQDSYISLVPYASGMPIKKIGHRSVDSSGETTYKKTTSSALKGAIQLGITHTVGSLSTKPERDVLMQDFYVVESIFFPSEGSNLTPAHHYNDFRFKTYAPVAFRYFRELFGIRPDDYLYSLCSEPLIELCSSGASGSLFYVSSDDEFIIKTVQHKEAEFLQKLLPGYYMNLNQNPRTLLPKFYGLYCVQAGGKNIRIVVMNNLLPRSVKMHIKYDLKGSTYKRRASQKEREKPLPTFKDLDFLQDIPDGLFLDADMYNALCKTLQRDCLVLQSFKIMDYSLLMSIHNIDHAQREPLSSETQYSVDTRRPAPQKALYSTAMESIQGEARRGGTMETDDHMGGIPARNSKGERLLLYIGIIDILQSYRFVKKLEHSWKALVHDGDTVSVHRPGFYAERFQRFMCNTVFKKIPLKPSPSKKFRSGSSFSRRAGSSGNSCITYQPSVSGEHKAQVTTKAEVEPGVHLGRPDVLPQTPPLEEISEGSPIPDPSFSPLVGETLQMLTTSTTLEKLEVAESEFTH

AKT3 = biological target: T22, AKT3 (Homo sapiens, UniProt Q9Y243); assay: KinomeScan; type: binding; settings: read-out: % control
T22 construct: purchased DiscoveRx KINOMEscan
T22 sequence (Q9Y243 whole entry): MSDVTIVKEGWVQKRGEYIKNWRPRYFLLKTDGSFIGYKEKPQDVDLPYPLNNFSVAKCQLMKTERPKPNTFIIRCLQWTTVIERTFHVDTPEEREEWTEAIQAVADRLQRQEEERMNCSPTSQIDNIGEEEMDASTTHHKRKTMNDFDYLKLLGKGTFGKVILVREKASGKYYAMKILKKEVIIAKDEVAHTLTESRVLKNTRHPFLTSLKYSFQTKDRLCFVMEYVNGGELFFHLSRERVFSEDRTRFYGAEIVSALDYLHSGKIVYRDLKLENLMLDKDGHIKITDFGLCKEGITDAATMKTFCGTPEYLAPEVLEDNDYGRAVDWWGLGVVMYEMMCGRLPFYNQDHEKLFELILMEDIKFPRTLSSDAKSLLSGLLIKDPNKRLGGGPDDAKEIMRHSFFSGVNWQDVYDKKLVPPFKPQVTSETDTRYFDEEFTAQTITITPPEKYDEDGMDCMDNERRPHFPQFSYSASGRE

MET(Y1235D) = biological target: T23, MET(Y1235D) (Homo sapiens, UniProt P08581, Y1235D); assay: KinomeScan; type: binding; settings: read-out: % control
T23 construct: purchased DiscoveRx KINOMEscan
T23 sequence (P08581 25-1390 Y1235D): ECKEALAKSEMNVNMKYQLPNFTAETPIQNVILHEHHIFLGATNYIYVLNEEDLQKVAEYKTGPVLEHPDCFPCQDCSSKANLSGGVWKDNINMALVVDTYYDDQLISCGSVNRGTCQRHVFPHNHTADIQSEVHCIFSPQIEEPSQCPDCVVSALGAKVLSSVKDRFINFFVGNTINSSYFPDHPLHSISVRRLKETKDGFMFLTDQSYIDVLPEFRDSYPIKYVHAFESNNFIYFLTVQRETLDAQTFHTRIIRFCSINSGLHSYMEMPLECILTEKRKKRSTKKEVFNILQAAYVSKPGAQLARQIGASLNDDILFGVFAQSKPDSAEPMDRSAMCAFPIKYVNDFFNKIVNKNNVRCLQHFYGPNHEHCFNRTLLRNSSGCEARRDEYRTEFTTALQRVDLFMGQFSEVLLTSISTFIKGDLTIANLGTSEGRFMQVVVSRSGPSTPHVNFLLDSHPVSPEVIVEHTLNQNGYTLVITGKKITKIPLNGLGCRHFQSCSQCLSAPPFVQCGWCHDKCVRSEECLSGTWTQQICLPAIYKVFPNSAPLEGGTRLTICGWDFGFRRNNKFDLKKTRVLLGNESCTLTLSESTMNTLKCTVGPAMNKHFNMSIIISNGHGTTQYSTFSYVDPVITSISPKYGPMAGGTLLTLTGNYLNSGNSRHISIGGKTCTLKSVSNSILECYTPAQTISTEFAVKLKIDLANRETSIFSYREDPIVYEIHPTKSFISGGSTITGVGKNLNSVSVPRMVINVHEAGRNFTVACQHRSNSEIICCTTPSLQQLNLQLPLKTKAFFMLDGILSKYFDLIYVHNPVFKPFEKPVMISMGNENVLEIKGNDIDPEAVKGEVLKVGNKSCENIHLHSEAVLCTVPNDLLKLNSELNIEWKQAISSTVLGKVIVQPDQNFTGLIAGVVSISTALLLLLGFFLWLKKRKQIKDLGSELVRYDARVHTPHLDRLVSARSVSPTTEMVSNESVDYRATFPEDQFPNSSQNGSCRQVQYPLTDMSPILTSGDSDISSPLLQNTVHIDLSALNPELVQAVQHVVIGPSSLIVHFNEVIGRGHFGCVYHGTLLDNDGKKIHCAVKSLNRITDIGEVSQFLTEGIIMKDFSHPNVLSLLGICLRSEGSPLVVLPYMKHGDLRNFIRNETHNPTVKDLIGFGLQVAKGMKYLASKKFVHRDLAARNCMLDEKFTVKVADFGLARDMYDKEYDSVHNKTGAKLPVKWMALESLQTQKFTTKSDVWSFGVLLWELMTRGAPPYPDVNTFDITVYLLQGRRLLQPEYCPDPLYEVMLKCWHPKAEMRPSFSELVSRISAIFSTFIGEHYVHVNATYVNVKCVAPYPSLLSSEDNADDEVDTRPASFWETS

WNK3 = biological target: T24, WNK3 (Homo sapiens, UniProt Q9BYP7); assay: KinomeScan; type: binding; settings: read-out: % control
T24 construct: purchased DiscoveRx KINOMEscan

CDK4 = biological target: T25, CDK4 (Homo sapiens, UniProt P11802); assay: KinomeScan; type: binding; settings: read-out: % control
T25 construct: purchased DiscoveRx KINOMEscan

PAK1 = biological target: T26, PAK1 (Homo sapiens, UniProt Q13153); assay: KinomeScan; type: binding; settings: read-out: % control
T26 construct: purchased DiscoveRx KINOMEscan

IRAK1 = biological target: T27, IRAK1 (Homo sapiens, UniProt P51617); assay: KinomeScan; type: binding; settings: read-out: % control
T27 construct: purchased DiscoveRx KINOMEscan

CSNK1G1 = biological target: T28, CSNK1G1 (Homo sapiens, UniProt Q9HCP0); assay: KinomeScan; type: binding; settings: read-out: % control
T28 construct: purchased DiscoveRx KINOMEscan

BaF3-FL-EGFR-del19 = assay: Anti-proliferation, BaF3 isogenic cell lines (CellTiter-Glo); type: cell-based; settings: Mus musculus, 72 hours, triplet testing
CSK = biological target: T29, CSK (Homo sapiens, UniProt P41240); assay: KinomeScan; type: binding; settings: read-out: % control
T29 construct: purchased DiscoveRx KINOMEscan

DMPK = biological target: T30, DMPK (Homo sapiens, UniProt Q09013); assay: KinomeScan; type: binding; settings: read-out: % control
T30 construct: purchased DiscoveRx KINOMEscan

MKK7 = biological target: T31, MKK7 (Homo sapiens, UniProt O14733); assay: KinomeScan; type: binding; settings: read-out: % control
T31 construct: purchased DiscoveRx KINOMEscan

SRPK3 = biological target: T32, SRPK3 (Homo sapiens, UniProt Q9UPE1); assay: KinomeScan; type: binding; settings: read-out: % control
T32 construct: purchased DiscoveRx KINOMEscan

RIPK1 = biological target: T33, RIPK1 (Homo sapiens, UniProt Q13546); assay: KinomeScan; type: binding; settings: read-out: % control
T33 construct: purchased DiscoveRx KINOMEscan

IKK-beta = biological target: T34, IKK-beta (Homo sapiens, UniProt O14920); assay: KinomeScan; type: binding; settings: read-out: % control
T34 construct: purchased DiscoveRx KINOMEscan
T34 sequence (O14920 whole entry): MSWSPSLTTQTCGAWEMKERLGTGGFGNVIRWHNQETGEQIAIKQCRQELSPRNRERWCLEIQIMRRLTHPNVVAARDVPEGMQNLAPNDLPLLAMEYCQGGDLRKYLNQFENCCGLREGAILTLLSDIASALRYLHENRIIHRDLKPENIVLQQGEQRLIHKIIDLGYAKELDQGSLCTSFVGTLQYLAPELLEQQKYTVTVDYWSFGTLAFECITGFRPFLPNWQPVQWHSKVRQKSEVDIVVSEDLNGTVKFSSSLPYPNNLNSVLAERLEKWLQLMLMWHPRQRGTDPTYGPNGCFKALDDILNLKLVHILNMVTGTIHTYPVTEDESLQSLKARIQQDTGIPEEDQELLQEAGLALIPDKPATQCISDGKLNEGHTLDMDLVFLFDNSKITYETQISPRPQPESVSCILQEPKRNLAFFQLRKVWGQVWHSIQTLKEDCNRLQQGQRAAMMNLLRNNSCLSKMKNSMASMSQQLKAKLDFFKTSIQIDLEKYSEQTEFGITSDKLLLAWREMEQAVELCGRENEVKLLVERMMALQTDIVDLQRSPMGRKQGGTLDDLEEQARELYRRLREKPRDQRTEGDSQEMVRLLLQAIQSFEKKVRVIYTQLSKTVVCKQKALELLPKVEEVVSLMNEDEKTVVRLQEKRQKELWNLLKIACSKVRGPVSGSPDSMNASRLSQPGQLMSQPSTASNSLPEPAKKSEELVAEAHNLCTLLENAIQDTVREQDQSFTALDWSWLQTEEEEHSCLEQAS

SGK2 = biological target: T35, SGK2 (Homo sapiens, UniProt Q9HBY8); assay: KinomeScan; type: binding; settings: read-out: % control
T35 construct: purchased DiscoveRx KINOMEscan

TNIK = biological target: T36, TNIK (Homo sapiens, UniProt Q9UKE5); assay: KinomeScan; type: binding; settings: read-out: % control
T36 construct: purchased DiscoveRx KINOMEscan

AMPK-alpha1 = biological target: T37, AMPK-alpha1 (Homo sapiens, UniProt Q13131); assay: KinomeScan; type: binding; settings: read-out: % control
T37 construct: purchased DiscoveRx KINOMEscan
T37 sequence (Q13131 whole entry): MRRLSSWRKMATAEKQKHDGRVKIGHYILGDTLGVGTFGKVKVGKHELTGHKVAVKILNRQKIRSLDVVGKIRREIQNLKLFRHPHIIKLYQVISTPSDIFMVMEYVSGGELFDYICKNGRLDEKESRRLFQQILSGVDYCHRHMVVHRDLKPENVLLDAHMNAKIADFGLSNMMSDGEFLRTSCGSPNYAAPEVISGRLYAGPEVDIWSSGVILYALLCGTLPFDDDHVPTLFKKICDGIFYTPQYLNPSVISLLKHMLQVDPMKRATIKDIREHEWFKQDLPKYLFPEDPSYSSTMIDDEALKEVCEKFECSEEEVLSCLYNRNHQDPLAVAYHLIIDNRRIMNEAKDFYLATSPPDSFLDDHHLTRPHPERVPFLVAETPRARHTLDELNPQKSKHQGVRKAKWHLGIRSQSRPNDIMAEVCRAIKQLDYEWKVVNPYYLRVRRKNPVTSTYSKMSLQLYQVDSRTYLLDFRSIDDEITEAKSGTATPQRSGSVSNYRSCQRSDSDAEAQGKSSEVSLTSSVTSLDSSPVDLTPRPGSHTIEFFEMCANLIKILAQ

C=CC(=O)N1CCC[C@@H](n2nc(-c3ccc(OCc4cccc(C)n4)c(Cl)c3)c3c(N)ncnc32)C1 [CHMFL-EGFR-26]
remaining binding at 1 µM (CSF1R-autoinhibited): 100%
remaining binding at 1 µM (FRK): 96%
remaining binding at 1 µM (FGR): 86%
remaining binding at 1 µM (CAMK2B): 97%
remaining binding at 1 µM (SGK): 100%
remaining binding at 1 µM (MEK5): 0.1%
remaining binding at 1 µM (ERK5): 100%
GI50 (CHL): > 10 µM
remaining binding at 1 µM (IRAK3): 94%
remaining binding at 1 µM (MYO3B): 98%
remaining binding at 1 µM (EGFR(L861Q)): 0.9%
remaining binding at 1 µM (TGFBR1): 7%
remaining binding at 1 µM (EPHA6): 97%
remaining binding at 1 µM (TAOK3): 100%
remaining binding at 1 µM (SgK110): 100%
remaining binding at 1 µM (BMPR1A): 100%
S score (1) (468 kinases/mutants): 0.02
remaining binding at 1 µM (RIOK1): 90%
GI50 [1]: 2100 nM
remaining binding at 1 µM (RET(V804M)): 93%
remaining binding at 1 µM (PRKCH): 70%
remaining binding at 1 µM (HIPK4): 100%
remaining binding at 1 µM (PIK3CA(Q546K)): 83%
remaining binding at 1 µM (PIP5K1A): 100%
remaining binding at 1 µM (AKT3): 59%
remaining binding at 1 µM (MET(Y1235D)): 55%
remaining binding at 1 µM (WNK3): 100%
remaining binding at 1 µM (CDK4): 100%
remaining binding at 1 µM (PAK1): 59%
remaining binding at 1 µM (IRAK1): 100%
remaining binding at 1 µM (CSNK1G1): 87%
GI50 (BaF3-FL-EGFR-del19): 13 nM
remaining binding at 1 µM (CSK): 32%
remaining binding at 1 µM (DMPK): 66%
remaining binding at 1 µM (MKK7): 2.5%
remaining binding at 1 µM (SRPK3): 90%
remaining binding at 1 µM (RIPK1): 100%
remaining binding at 1 µM (IKK-beta): 98%
remaining binding at 1 µM (SGK2): 100%
remaining binding at 1 µM (TNIK): 11%
remaining binding at 1 µM (AMPK-alpha1): 79%
